In ChEMBL document CHEMBL1201862, “PubChem BioAssay data set” (2004):
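All cell lines were grown in 96-well plates and treated with compound for 48 hours. GI50 marks 50% less growth.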 The source made the active and inactive calls. Rule as the data show it: active = GI50 up to about 1.1 µM and inactive = higher.

Key:
Experiment in all cases: NCI anticancer screen, dose series, 48 h
HCT-15 = system: HCT-15
SNB-19 = system: SNB-19
HCC 2998 = system: HCC 2998
UACC-62 = system: UACC-62
SN12C = system: SN12C
RPMI-8226 = system: RPMI-8226
RXF 393 = system: RXF 393
NCI-H23 = system: NCI-H23
SF-268 = system: SF-268
UO-31 = system: UO-31
M14 = system: M14
UACC-257 = system: UACC-257
MOLT-4 = system: MOLT-4
NCI-H460 = system: NCI-H460
A498 = system: A498
NCI-H226 = system: NCI-H226
SR = system: SR

Row | SMILES | GI50 (HCT-15) [µM] | GI50 (SNB-19) | GI50 (HCC 2998) | GI50 (UACC-62) | GI50 (SN12C) | GI50 (RPMI-8226) | GI50 (RXF 393) | GI50 (NCI-H23) | GI50 (SF-268) | GI50 (UO-31) | GI50 (M14) | GI50 (UACC-257) | GI50 (MOLT-4) | GI50 (NCI-H460) | GI50 (A498) | GI50 (NCI-H226) | GI50 (SR)
1 | CCOC(=O)C1C(=S)NC(=O)C1C#N (stereo unspecified) | > 100 | > 100 µM (inactive) | > 100 µM (inactive) | > 100 µM (inactive) | > 100 µM (inactive) | > 100 µM (inactive) | > 100 µM (inactive) | > 100 µM (inactive) | > 100 µM (inactive) | > 100 µM (inactive) | > 100 µM (inactive) | > 100 µM (inactive) | > 100 µM (inactive) | > 100 µM (inactive) |  |  | 
2 | COc1nc(NC2OC(COC(C)=O)C(OC(C)=O)C(OC(C)=O)C2OC(C)=O)c(/N=C(\C)C(C)=O)c(=O)n1C (stereo unspecified) | > 100 | > 100 µM (inactive) | > 100 µM (inactive) | > 100 µM (inactive) | > 100 µM (inactive) | > 100 µM (inactive) | > 100 µM (inactive) | > 100 µM (inactive) |  | > 100 µM (inactive) | > 100 µM (inactive) | > 100 µM (inactive) | > 100 µM (inactive) | > 100 µM (inactive) | > 100 µM (inactive) | > 100 µM (inactive) | 
3 | O=C1CCC2(c3ccc(Cl)cc3)Nc3ncccc3N12 (stereo unspecified) | > 100 |  | > 100 µM (inactive) | > 100 µM (inactive) | > 100 µM (inactive) | > 100 µM (inactive) | > 100 µM (inactive) | > 100 µM (inactive) | > 100 µM (inactive) | > 100 µM (inactive) | > 100 µM (inactive) | > 100 µM (inactive) | > 100 µM (inactive) | > 100 µM (inactive) | > 100 µM (inactive) | > 100 µM (inactive) | 
4 | CSc1c(C)c(C)nn1-c1ccccc1 | > 100 | > 100 µM (inactive) | > 100 µM (inactive) | > 100 µM (inactive) | > 100 µM (inactive) | > 100 µM (inactive) | > 100 µM (inactive) | > 100 µM (inactive) | > 100 µM (inactive) | > 100 µM (inactive) | > 100 µM (inactive) | > 100 µM (inactive) | > 100 µM (inactive) | > 100 µM (inactive) | > 100 µM (inactive) |  | 
5 | CC(C)(c1cn(Cc2ccccc2)c2ccccc12)c1cn(Cc2ccccc2)c2ccccc12 | > 100 |  |  | > 100 µM (inactive) | 1.7 µM (inactive) | > 100 µM (inactive) |  | > 100 µM (inactive) | > 100 µM (inactive) |  | > 100 µM (inactive) |  | > 100 µM (inactive) | > 100 µM (inactive) |  | 51.3 µM (inactive) | > 100 µM (inactive)
6 | CC(C)(C)OC1=C(OC(C)(C)C)C(O)(c2ccccc2)C1=O (stereo unspecified) | > 100 | > 100 µM (inactive) | > 100 µM (inactive) | > 100 µM (inactive) | > 100 µM (inactive) | > 100 µM (inactive) | > 100 µM (inactive) | > 100 µM (inactive) | > 100 µM (inactive) | > 100 µM (inactive) | > 100 µM (inactive) |  | > 100 µM (inactive) | > 100 µM (inactive) | > 100 µM (inactive) |  | 
7 | COC(=O)C1=C(C(=O)OC)C2(C3C(SC)=CC(C)(C)CC3S1)N(Cc1ccccc1)CCN2Cc1ccccc1 (stereo unspecified) | > 100 | > 100 µM (inactive) |  | > 100 µM (inactive) | > 100 µM (inactive) | 18.3 µM (inactive) | 54.7 µM (inactive) | > 100 µM (inactive) | > 100 µM (inactive) | > 100 µM (inactive) | > 100 µM (inactive) | > 100 µM (inactive) | > 100 µM (inactive) | > 100 µM (inactive) |  | > 100 µM (inactive) | 
8 | CCCCCCCCCCCC(=O)C1=C(O)CC(O)CC1=O (stereo unspecified) |  | > 100 µM (inactive) | > 100 µM (inactive) | 95.1 µM (inactive) | > 100 µM (inactive) | 87.3 µM (inactive) | > 100 µM (inactive) | > 100 µM (inactive) | > 100 µM (inactive) | 64.4 µM (inactive) | > 100 µM (inactive) | > 100 µM (inactive) | 88.1 µM (inactive) | > 100 µM (inactive) |  | 68.7 µM (inactive) | > 100 µM (inactive)
9 | CCN(CC)CCCC(C)Nc1c(Sc2cnc3cc(Cl)ccc3c2NC(C)CCCN(CC)CC)cnc2cc(Cl)ccc12 (stereo unspecified) | 1.72 |  | 0.269 µM (active) | 1.74 µM (inactive) | 1.88 µM (inactive) | 1.91 µM (inactive) | 1.67 µM (inactive) | 3.3 µM (inactive) | 2.02 µM (inactive) | 21.1 µM (inactive) | 1.81 µM (inactive) | 2.03 µM (inactive) | 2.37 µM (inactive) | 1.74 µM (inactive) | 1.85 µM (inactive) | 1.76 µM (inactive) | 
10 | CC(=O)c1c2c(cc3c1CC1(C3)Cc3cc4c(c(C(C)=O)c3C1)CCC4)CCC2 |  | > 100 µM (inactive) | > 100 µM (inactive) | > 100 µM (inactive) | > 100 µM (inactive) |  | > 100 µM (inactive) | > 100 µM (inactive) | > 100 µM (inactive) | > 100 µM (inactive) | > 100 µM (inactive) | > 100 µM (inactive) | 73.1 µM (inactive) | > 100 µM (inactive) |  |  | > 100 µM (inactive)
